# According to patent US20190210973A1, “COMPOUNDS AND METHODS FOR TREATMENT OF CYSTIC FIBROSIS” (The Curators of the University of Missouri, priority 2018, published 2019):
# How the values were obtained:
# delF508-CFTR = delF508-CFTR (Homo sapiens, UniProt P13569, DEL508-508); set-up: delF508 stably-transfected C127 cells were cultured in DMEM with 10% FBS in 6-well plates; expressed in transfected cells; host or cells: C127 cells stably expressing delF508-CFTR; settings: Kopeikin et al., J. Cys. Fibro. 2014; cited from earlier work
# Sequence of delF508-CFTR (P13569 with tags, fused parts or gaps DEL508-508): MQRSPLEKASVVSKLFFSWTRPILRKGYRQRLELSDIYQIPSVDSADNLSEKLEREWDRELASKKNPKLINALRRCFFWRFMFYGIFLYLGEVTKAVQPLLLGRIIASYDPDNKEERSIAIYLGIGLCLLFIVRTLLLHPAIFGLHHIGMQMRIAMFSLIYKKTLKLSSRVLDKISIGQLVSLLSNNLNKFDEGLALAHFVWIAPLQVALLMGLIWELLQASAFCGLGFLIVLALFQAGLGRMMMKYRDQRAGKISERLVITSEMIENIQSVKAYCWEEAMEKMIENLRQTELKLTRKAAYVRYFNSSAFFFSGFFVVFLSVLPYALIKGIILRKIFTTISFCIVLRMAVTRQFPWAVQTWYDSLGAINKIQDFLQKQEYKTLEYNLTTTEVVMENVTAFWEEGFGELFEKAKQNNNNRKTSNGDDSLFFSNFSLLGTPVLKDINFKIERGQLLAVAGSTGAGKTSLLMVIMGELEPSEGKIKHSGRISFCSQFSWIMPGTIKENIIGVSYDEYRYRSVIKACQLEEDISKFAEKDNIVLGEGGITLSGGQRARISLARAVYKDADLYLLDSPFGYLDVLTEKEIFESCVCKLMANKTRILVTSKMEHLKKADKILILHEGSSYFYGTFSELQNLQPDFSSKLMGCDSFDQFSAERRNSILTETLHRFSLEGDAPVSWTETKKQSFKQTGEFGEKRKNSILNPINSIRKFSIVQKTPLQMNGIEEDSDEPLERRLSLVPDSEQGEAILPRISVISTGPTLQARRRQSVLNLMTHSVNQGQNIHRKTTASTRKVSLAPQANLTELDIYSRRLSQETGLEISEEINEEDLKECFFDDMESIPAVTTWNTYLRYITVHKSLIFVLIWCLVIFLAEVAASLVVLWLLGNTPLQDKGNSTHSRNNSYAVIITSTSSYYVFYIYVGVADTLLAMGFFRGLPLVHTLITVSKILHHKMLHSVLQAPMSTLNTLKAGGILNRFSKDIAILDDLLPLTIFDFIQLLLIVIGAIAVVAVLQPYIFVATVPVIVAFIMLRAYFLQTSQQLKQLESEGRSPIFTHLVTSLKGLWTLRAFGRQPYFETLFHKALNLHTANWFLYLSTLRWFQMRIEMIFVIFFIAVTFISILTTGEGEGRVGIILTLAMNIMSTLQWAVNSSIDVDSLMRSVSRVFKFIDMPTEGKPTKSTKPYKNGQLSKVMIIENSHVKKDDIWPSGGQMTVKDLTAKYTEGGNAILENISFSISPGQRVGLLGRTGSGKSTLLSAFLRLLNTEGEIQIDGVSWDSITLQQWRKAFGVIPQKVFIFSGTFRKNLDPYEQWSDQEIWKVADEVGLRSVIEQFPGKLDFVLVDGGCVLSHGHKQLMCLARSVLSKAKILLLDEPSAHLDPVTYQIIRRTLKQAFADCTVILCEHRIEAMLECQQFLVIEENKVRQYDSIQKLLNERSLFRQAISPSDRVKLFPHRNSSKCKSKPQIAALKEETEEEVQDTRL
# G551D-CFTR = target: T1, G551D-CFTR (Homo sapiens, UniProt P13569, G551D); assay: Patch-clamp recording of G551D-CFTR currents in excised inside-out patches of transfected CHO cells; format: cell-based
# T1 construct: The cDNA constructs of CFTR (G551D and delF508) were co-transfected with peGFP-C3; expressed in transfected cells; host or cells: CHO cells (ATCC), transient co-transfection with pEGFP-C3 (GFP as a separate marker, not fused)
# T1 sequence (P13569 whole entry G551D, the tested form may be a part): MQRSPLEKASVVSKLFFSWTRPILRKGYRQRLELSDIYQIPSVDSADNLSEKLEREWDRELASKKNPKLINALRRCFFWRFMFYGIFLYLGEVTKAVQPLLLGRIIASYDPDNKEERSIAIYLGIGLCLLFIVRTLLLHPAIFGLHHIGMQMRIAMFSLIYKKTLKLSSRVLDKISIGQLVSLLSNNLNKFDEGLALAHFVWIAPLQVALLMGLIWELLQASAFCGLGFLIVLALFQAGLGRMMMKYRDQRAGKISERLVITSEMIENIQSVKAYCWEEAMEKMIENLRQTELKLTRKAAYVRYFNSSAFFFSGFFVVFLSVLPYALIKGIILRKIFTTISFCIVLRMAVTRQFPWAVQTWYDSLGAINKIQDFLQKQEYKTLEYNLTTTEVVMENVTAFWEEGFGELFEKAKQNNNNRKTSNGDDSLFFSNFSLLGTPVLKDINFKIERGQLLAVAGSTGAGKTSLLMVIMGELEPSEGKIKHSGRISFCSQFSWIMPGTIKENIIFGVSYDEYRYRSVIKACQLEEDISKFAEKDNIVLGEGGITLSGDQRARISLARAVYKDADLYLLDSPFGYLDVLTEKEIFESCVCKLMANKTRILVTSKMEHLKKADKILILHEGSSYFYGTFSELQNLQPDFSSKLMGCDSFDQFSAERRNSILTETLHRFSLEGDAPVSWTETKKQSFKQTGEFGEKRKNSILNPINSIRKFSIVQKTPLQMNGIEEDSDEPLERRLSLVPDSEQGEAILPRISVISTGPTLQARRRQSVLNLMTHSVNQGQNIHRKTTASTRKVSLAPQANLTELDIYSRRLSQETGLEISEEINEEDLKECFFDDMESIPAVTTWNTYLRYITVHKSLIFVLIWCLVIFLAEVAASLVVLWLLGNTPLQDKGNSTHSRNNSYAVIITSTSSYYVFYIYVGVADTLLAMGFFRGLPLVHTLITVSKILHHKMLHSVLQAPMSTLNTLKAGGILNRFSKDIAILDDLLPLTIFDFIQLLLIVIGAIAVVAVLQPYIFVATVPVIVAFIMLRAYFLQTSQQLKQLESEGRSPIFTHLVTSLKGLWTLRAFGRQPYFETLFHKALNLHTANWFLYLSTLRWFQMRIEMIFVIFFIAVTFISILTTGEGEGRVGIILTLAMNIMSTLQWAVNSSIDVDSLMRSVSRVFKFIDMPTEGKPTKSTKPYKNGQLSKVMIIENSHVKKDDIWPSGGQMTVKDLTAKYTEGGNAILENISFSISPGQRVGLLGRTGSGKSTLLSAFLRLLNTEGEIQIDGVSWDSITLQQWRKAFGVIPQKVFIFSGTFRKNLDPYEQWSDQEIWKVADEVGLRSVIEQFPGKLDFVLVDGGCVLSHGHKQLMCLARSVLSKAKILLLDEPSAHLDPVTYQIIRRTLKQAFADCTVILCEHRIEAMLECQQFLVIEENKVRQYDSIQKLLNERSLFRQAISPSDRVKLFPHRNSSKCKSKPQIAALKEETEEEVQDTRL
# Text: Patch-clamp is considered the gold standard for assessing directly ion channel function in real time. By attaching a glass microelectrode on the surface of a cell, it is possible to record the currents generated by channels proteins that are present in this tiny “patch” of cell membranes. Since millions of ions pass through a single ion channel pore per second, the resulting microscopic currents from a single channel protein molecule can be detected with modem patch-clamp amplifiers. As ion channels (a conductor in electricity term) are arranged in parallel in the cell membrane, it is also possible to assay a group of ion channels by monitoring macroscopic currents representing the sum of currents from individual channels. Microscopic recordings allow artisans to examine exquisitely the effects of compounds on the Po and kinetic parameters of CFTR channels; whereas macroscopic recordings provide an assay not only to quantify the overall effects of compounds on N×Po×i, but also monitor the stability of the CFTR currents in real time.
# Chinese hamster ovary (CHO) cells were grown at 37° C. in Dulbecco's modified Eagle's medium supplemented with 10% fetal bovine serum. Cells were subcultured into 35-mm tissue culture dishes 1 day before transfection. PolyFect transfection reagent (QIAGEN) was used to cotransfect CFTR cDNA and pEGFP-C3 (Takara Bio Inc.), which encodes green fluorescence proteins, into CHO cells. After transfection, cells were incubated at 27° C. for at least 2 days before electrophysiological experiments were performed.
# Glass chips carrying the transfected cells were transferred to a chamber located on the stage of an inverted microscope (IX51; Olympus). Borosilicate capillary glasses were used to make patch pipettes using a two-stage micropipette puller (PP-81, Narishige, Japan). The pipettes were polished with a homemade microforge to a resistance of 2-4 MΩ in the bath solution. Once the seal resistance reached >40 GΩ, membrane patches were excised into an inside-out mode. Subsequently, the pipette was moved to the outlet of a three-barrel perfusion system and perfused with 25 IU PKA and 2 mM ATP until the CFTR current reached a steady state. A patch-clamp amplifier (EPC10, HEKA, Germany) was used to record electrophysiological data at room temperature. The data were filtered online at 100 Hz with an eight-pole Bessel filter (LPF-8; Warner Instruments) and digitized to a computer at a sampling rate of 500 Hz. […] Membrane potential was held at −30 or −50 mV for all recordings.
# Disease-causing mutations (G551D and delF508) were made with PCR-based site-directed mutagenesis using the Pfu Ultra II (Agilent Technologies). […] The cDNA constructs of CFTR (G551D and delF508) were co-transfected with peGFP-C3 (Takara Bio Inc.) encoding the green fluorescent protein into CHO cells using PolyFect transfection reagent (QIAGEN). The transfected cells were transferred into 35 mm tissue culture dishes containing one layer of sterilized glass chips for cells to grow on. The transfected cells were incubated at 27° C. for 2-7 days before electrophysiological experiments were performed.
# All patch-clamp experiments were carried out in the excised inside-out configuration. Micropipettes made of borosilicate capillary glass were pulled with a two-stage vertical puller (Narishige) and then fire-polished with a homemade microforge to reach a pipet resistance of 2-4 MΩ when the pipettes were filled with a standard inside-out pipet solution that contains: 140 mM N-Methyl-D-glucamine-Cl (NMDG-Cl), 2 mM MgCl2, 5 mM CaCl2) and 10 mM HEPES, adjusted to pH 7.4 with NMDG.
structure (smiles),measurement,setting,value
"CC(C)(C)c1cc(C(C)(C)C)c(NC(=O)c2c[nH]c3ccccc3c2=O)cc1O [VX-770, Ivacaftor, reference compound]",Po of delF508-CFTR in the presence of Ivacaftor,delF508-CFTR,above 0.4
same,fold increase of mean G551D-CFTR current,G551D-CFTR; 200 nM VX-770 alone,around 10 folds
same,"effect on G551D-CFTR currents, compound alone",G551D-CFTR; after activation by PKA and ATP,increased the current to approximately the same level as LZH-00014
